According to the SangsterLogP compilation:

Experiment: method code SF, from DOI: 10.1007/978-3-0348-5795-6_10, PMID: 954948

logP	SMILES
4.4	O=S(c1ccccc1)c1ccc(N=C=S)cc1 (centres undefined)
4.4	S=C=Nc1ccc(Cc2ccccc2)cc1
5.55	S=C=Nc1ccc(/N=N/c2ccccc2)cc1
5.09	S=C=NC(c1ccccc1)c1ccccc1
4.66	S=C=Nc1ccc(-c2ccccc2)cc1
4.42	S=C=NCc1cccc2ccccc12
4.88	O=C(c1ccccc1)c1ccc(N=C=S)cc1
5.7	S=C=Nc1ccc2cc3ccccc3cc2c1
4.75	S=C=Nc1ccc(Oc2ccccc2)cc1
4.34	S=C=Nc1ccc2ccccc2c1
4.9	O=C(Oc1ccc(N=C=S)cc1)c1ccccc1
4.94	S=C=Nc1ccc(Nc2ccccc2)cc1

SMILES	logP
S=C=NC(c1ccccc1)(c1ccccc1)c1ccccc1	7.02
CCN=C=S	1.47
S=C=NCCc1ccccc1	3.47
Oc1ccc(N=C=S)cc1	2.74
S=C=NCc1ccccc1	3.16
CC(N=C=S)c1ccccc1 (centres undefined)	3.46
S=C=Nc1cccc2ccccc12	4.34
